Where a SMILES comes first, the peptide text is derived from it.
Legend:
[1] = biological target: α-chymotrypsin (Bos taurus, UniProt P00766); conditions: 100 μM peptide in DPBS, peptide-to-enzyme mass ratio 100:1, time points 0, 1, 5, 15, 30, 60 min, stopped with 0.1% TFA, RP-HPLC read-out
Procedure: Peptides were prepared at a concentration of 100 μM in DPBS, and α-chymotrypsin was added to achieve a final peptide-to-enzyme mass ratio of 100:1. The digestion was carried out at time points of 0, 1, 5, 15, 30, and 60 min, after which 0.1% TFA was added to terminate the reaction. The resulting samples were analyzed by reversed-phase HPLC (water/acetonitrile with 0.1% TFA) to monitor peptide stability.

[2] = test system: FITC-labeled human IgG; assay: IgG capture test on peptide-functionalized glass slides, fluorescence imaging; type: binding; conditions: peptide immobilized via thiol-maleimide on PEG-modified epoxy glass slide; antibody 5 µg/mL in PBS, 25 °C, 3 h; ImageJ; n = 1
Procedure: Epoxy-functionalized microscope glass slides (Tekdon Incorporated, Myakka City, FL, USA) were mounted in eight-well chambers. For peptide immobilization, NH2-PEG5000-COOH linkers (Biopharma PEG, Watertown, MA, USA) were applied to each well at a concentration of 1 mg/mL in ddH2O and incubated for ~5 h. The slides were then rinsed three times with ddH2O. Carboxyl groups of NH2-PEG5000-COOH linkers were activated for 30 min using 4 µg/mL 1-ethyl-3-(3-dimethylaminopropyl) carbodiimide hydrochloride (EDC; Thermo Fisher Scientific, Waltham, MA, USA) and 6 µg/mL N-hydroxy succinimide (NHS; Thermo Fisher Scientific) in ddH2O. Upon activation, the surfaces were washed three times with 1× PBS (Gibco, Grand Island, NY, USA) and incubated for over 5 h with an excess of NH2-PEG1000-MAL linkers (1 mg/mL in 1× PBS; Biopharma PEG). […]
[…] (Abcam, Cambridge, UK) were used to evaluate the antibody-binding capacity of each functionalized surface. […] The amount of surface-captured antibody was quantified via fluorescence imaging. […] Fluorescence intensity was analyzed using Image J software (64-bit Java 8). […]
Figure 3 IgG capture assay using FITC-labeled human IgG to evaluate the Fc-binding capability of peptides. […] (C) Quantitative fluorescence intensity analysis performed using ImageJ software (64-bit Java 8). […]

CSCC[C@H](NC(=O)[C@H](CC(N)=O)NC(=O)[C@@H](N)Cc1ccccc1)C(=O)N[C@@H](CCC(N)=O)C(=O)N[C@@H](C)C(=O)N[C@@H](CCC(N)=O)C(=O)N[C@@H](CCCNC(=N)N)C(=O)N[C@@H](CCCNC(=N)N)C(=O)N[C@@H](Cc1ccccc1)C(=O)N[C@@H](Cc1ccc(O)cc1)C(=O)N[C@@H](CCC(=O)O)C(=O)N[C@@H](C)C(=O)N[C@@H](CC(C)C)C(=O)N[C@@H](Cc1c[nH]cn1)C(=O)N[C@@H](CS)C(N)=O [SpA h1] (H-FNMQAQRRFYEALHC-NH2)
time within which most of the peptide signal disappeared on α-chymotrypsin treatment [1]: ≤ 1 min

Protein A: Fc-binding protein of Staphylococcus aureus, positive control of the IgG capture test
IgG-binding capacity (fluorescence intensity of captured IgG), in words [2]: strong signal intensity

Source: paper PMC12729524, “Enhancement of Structural Stability and IgG Affinity of a Z34C-Derived α-Helical Peptide via Lactam Stapling” (Antibodies, 2025)
